Experiments:
[1] = tested on: CD4+ T cell clones NW2337-CD4-1 and NW2337-CD4-10; test: Peptide titration ELISPOT assay with overlapping NY-ESO-1 peptides; type: cell-based, human; conditions: peptide 10 μM to 0.1 nM pulsed onto autologous EBV-B-cells
Procedure: (§1) The CD4^+ T cells were restimulated weekly with 1 μg/ml of the peptide being used. On day 12, each CD4^+ culture was assayed for NY-ESO-1 peptide recognition, using the ELISPOT assay of lager, et al., Proc. Natl. Acad. Sci. USA, 97(9):4760-4765 (2000), incorporated by reference. To elaborate on this procedure, flat-bottomed, 96-well nitrocellulose plates were coated with 5 μg/ml of anti-interferon-gamma antibody and incubated overnight at 4° C. After washing with PBS, plates were blocked with 10% human serum (HS) for 1 hour at 37° C. Depending on the effector:target ratio used, various numbers of presensitized CD4^+ T-cells were added to each well along with 5×10^4 autologous peptide pulsed EBV transfected B cells (“EBV-B cells”) serving as target cells and incubated for 16 hours at 37° C. in TCM without IL-2. Plates were then washed extensively (6 times with a solution of 0.05% Tween 20/PBS), and biotinylated anti-interferon-gamma detection antibody was added at a concentration of 0.5 μg/ml. After incubation for 2 h at 37° C., plates were washed and incubated with ABC-AP Vectastain for 1 hour. Plates were washed again and developed with substrate (BCIP/NPT) until blue spots were visible. The number of blue spots/well represented the proportion of NY-ESO-1 specific CD4^+ T-cells/well was finally counted under the microscope.
To further identify the exact epitope required for CD4^+ T cell recognition by these two CD4^+ T cell clones, a peptide titration assay was performed using overlapping NY-ESO-1 peptides (FIG. 2) at concentrations between 10 μM and 0.1 nM, pulsed onto autologous EBV-B-cells and tested in ELISPOT assays (FIG. 3).

[2] = tested on: CD4+ T cells; test: IFN-γ ELISPOT of CD4+ T cells presensitized with overlapping NY-ESO-1 18 mer peptides; type: cell-based, human; conditions: for Patient T cells 1 / Patient T cells 2 / Patient T cells 3: IFN-γ ELISPOT; for Patient T cells 1: day 12, CD4+ T cells of patient 1, autologous peptide pulsed EBV-B cells as targets; for Patient T cells 2: day 12, CD4+ T cells of patient 2, autologous peptide pulsed EBV-B cells as targets; for Patient T cells 3: day 12, CD4+ T cells of patient 3, autologous peptide pulsed EBV-B cells as targets
Procedure: Peripheral blood mono-nuclear cells (“PBMCs”) were separated from heparinized blood via Ficoll density gradient separation, using standard, art recognized techniques. Once this was done, the CD4^+ and CD8^+ T cells were separated from each other using magnetic cell sorting techniques which are well known to the art, producing CD4^+, CD8^+, and CD4^−/CD8^− cell populations.
A series of 18 mer peptides were prepared from the amino acid sequence of NY-ESO-1 as set forth in, e.g., U.S. Pat. No. 5,804,381, incorporated by reference. The peptides were designed to cover the entire sequence of NY-ESO-1, and to provide overlap.
The peptides were then individually pulsed to antigen presenting cells (“APCs”). These were CD4^−/CD8^− PBMCs taken from the same subjects who had provided the CD4^+ and CD8^+ cells. These APCs were irradiated with 3000 rads, and then pulsed with one of the peptides, at a concentration of 10 μg/ml, for 1 hour, in serum free medium. These APCs were then washed, and added to the CD4^+ cells. In the pulsing experiments, the peptides were solubilized in DMSO (100%) and then diluted with PBS to a final concentration of 10% DMSO. The CD4^+ cells had been cultured in a medium of L-arginine (242 mg/l), L-asparagene (50 mg/l), L-glutamine (300 mg/l), penicillin (10 IU/ml), streptomycin (100 μg/ml), 1% non-essential amino acids, 10% HS, and 10 ng/ml of recombinant human IL-2.
as §1
The EBV-B-cells were generated from each patients' PBMC following standard methods and maintained in RPMI 1640 medium supplemented with 10 mM Hepes buffer, L-arginine (242 mg/l), L-asparagine (50mg/l), L-glutamine (300 mg/l), penicillin (10 IU/ml), streptomycin (100 μg/ml), 1% non-essential amino acids, and 10% FCS. […] PBMC's or EBV-B-cells were molecularly typed for HLA expression using standard procedures.

Substance | recognition by clone NW2337-CD4-1 [1] | recognition by clone NW2337-CD4-10 [1] | Patient T cells 1 [2] | Patient T cells 2 [2] | Patient T cells 3 [2] | patients whose CD4+ T cells recognized the peptide ([2]; three patients tested)
p51-70: overlapping 20 mer NY-ESO-1 peptide, amino acids 51-70 (ARASGPGGGAPRGPHGGAAS; UniProt P78358 51-70, looked up, fragment) | recognized |  |  |  |  | 
61-80: overlapping 20 mer NY-ESO-1 peptide, amino acids 61-80 (PRGPHGGAASGLNGCCRCGA; UniProt P78358 61-80, looked up, fragment) [Peptide 61-80] |  | able to recognize |  |  |  | 
P37-54: synthetic 18 mer peptide, amino acids 37-54 of NY-ESO-1 (AGATGGRGPRGAGAARAS; UniProt P78358 37-54, looked up, fragment) [Peptide P37-54] |  |  | − (− indicates <50 spots) | − (− indicates <50 spots) | − (− indicates <50 spots) | 
p127-144: synthetic 18 mer peptide, amino acids 127-144 of NY-ESO-1 (TVSGNILTIRLTAADHRQ; UniProt P78358 127-144, looked up, fragment) |  |  | − (− indicates <50 spots) | − (− indicates <50 spots) | − (− indicates <50 spots) | 
P73-90: synthetic 18 mer peptide, amino acids 73-90 of NY-ESO-1 (NGCCRCGARGPESRLLEF; UniProt P78358 73-90, looked up, fragment) [Peptide P73-90] |  |  | − (− indicates <50 spots) | − (− indicates <50 spots) | − (− indicates <50 spots) | 
p103-120: synthetic 18 mer peptide, amino acids 103-120 of NY-ESO-1 (ELARRSLAQDAPPLPVPG; UniProt P78358 103-120, looked up, fragment) |  |  | − (− indicates <50 spots) | + (+ indicates >50 spots (all + scores indicated were >100 spots)) | − (− indicates <50 spots) | one patient
P67-84: synthetic 18 mer peptide, amino acids 67-84 of NY-ESO-1 (GAASGLNGCCRCGARGPE; UniProt P78358 67-84, looked up, fragment) [Peptide P67-84] |  |  | − (− indicates <50 spots) | − (− indicates <50 spots) | − (− indicates <50 spots) | 
p163-180: synthetic 18 mer peptide, amino acids 163-180 of NY-ESO-1 (TQCFLPVFLAQPPSGQRR; UniProt P78358 163-180, looked up, fragment) |  |  | − (− indicates <50 spots) | − (− indicates <50 spots) | − (− indicates <50 spots) | 

Source: patent US7632506B2, “Identification of new NY-ESO-1 epitopes recognized by CD4+ T-cells” (Ludwig Institute for Cancer Research, priority 2005, dated 2009)
